Drawing on the SangsterLogP compilation, this text covers logD and logP for 44 compounds.

A short description of data set [1]: method code SF-RC, from DOI: 10.1021/jm000079i, PMID: 10956218. Conditions: pH 7.4.
A short description of data set [2]: method code SF-HPLC, from DOI: 10.1016/0378-5173(90)90303-l. Conditions: pH 7.4.
Data set [3] can be described thus: method code SF-AS, from DOI: 10.1081/jlc-100101656.
Data set [4] in a line: method code SF-RC, from DOI: 10.1016/s0969-8051(03)00053-2. The conditions noted are these: pH 7.4.
The nature of data set [5]: method code SF-AS, from DOI: 10.1248/cpb.42.1084, PMID: 8069960.
Assay in data set [6]: not given
This is another data set of the same source.

The nature of data set [7]: method code SF, from DOI: 10.1584/jpestics.8.69.
Data set [8] is described as follows: method code SF-AS, from THAKUR, B.; Mehta, U.; TIPNIS, P. (1981). Ortho effect in partition coefficients of some o-benzyloxybenzamides. Indian J Pharm Sci, 43(6)224-226.
Data set [9] in a line: method code SF-RC, from DOI: 10.1016/j.nucmedbio.2015.07.007, PMID: 26330158. The conditions noted are these: pH 7.4.
The nature of data set [10]: method code SF-AS, from DOI: 10.1021/jm010817i, PMID: 11806714. The conditions noted are these: pH 7.4.
Assay in data set [11]: not given
The source holds these as a separate data set.

Data set [12] is described as follows: method code SF, from You, R.; Wang, L.; Cong, L.; Wang, Q.; Cai, P.; Yuan, H. (2007). Physicochemical properties of oxymatrine-phospholipid complex. Pharmaceutical Journal of Chinese People's Liberation Army, …. Conditions: pH 7.5.
The nature of data set [13]: method code SF-HPLC, from DOI: 10.1023/a:1015823315983, PMID: 1475237. The conditions noted are these: pH 1.0.
Assay in data set [14]: not given
The source holds these as a separate data set.

Data set [15] can be described thus: method code RP-HPLC, from DOI: 10.1016/0043-1354(79)90252-5. Conditions: pH 7.0.
Data set [16] can be described thus: method code SF-HPLC, from DOI: 10.1897/08-203.1, PMID: 18702564.
Data set [17] can be described thus: method code SF-AS, from DOI: 10.1016/s0026-895x(25)10375-1.
The nature of data set [18]: method code SF-HPLC, from DOI: 10.1021/jm100498u, PMID: 20704351. The conditions noted are these: pH 7.4.
Assay in data set [19]: not given
This is another data set of the same source.

The nature of data set [20]: method code SF-HPLC, from DOI: 10.1016/j.ejpb.2006.11.002, PMID: 17182232. Conditions: pH 7.4.
Data set [21] in a line: method code SF-RC, from DOI: 10.1016/j.nucmedbio.2011.12.002, PMID: 22321533.
Assay in data set [22]: not given
The source holds these as a separate data set.

Assay in data set [23]: not given
This is another data set of the same source.

Assay in data set [24]: not given
This is another data set of the same source.

A short description of data set [25]: method code SF, from Li, Y.; Sun, S.; Zheng, Y. (2012). Determination of partition coefficients of icariside-II and icaritin based on the HPLC retention time. Chinese Pharmaceutical Journal, 47, 122-126.
Data set [26] is described as follows: method code SF-RC, from PMID: 3380859. The conditions noted are these: pH 1.0.
Data set [27] can be described thus: method code SF-AS, from PMID: 12408720. The conditions noted are these: pH 7.4.
Assay in data set [28]: not given
This is another data set of the same source.

A short description of data set [29]: method code SF-RC, from DOI: 10.1016/s0969-8051(03)00049-0, PMID: 12900282. Conditions: pH 7.4.
Assay in data set [30]: not given
This is another data set of the same source.

Data set [31] in a line: method code SF-AS, from Falk, M.; Luecke, L. (1989). Transport of substances through lipid membranes. 11. Effect of esterification on the dissociation and permeation of orotic acid. Pharmazie, 44(9)647. The conditions noted are these: pH 1.2.
Assay in data set [32]: not given
This is another data set of the same source.

Data set [33] in a line: method code SF-AS, from PMID: 6540096. Conditions: pH 7.5.
Assay in data set [34]: not given
The source holds these as a separate data set.

The nature of data set [35]: method code SF, from Rodriguez, L.; Zecchi, V.; Tartarini, A. (1984). Partition rate of some nonsteroidal anti-inflammatory agents in a three-phase water/n-octanol/water system. Pharmaceutical Acta Helvetiae, 59(3)95-96. The conditions noted are these: pH 12.0.
Data set [36] is described as follows: from Comini, L.; Núñez Montoya, S.; Argüello, G.; Cabrera, J. (2006). Partition coefficient (log P) determination of anthraquinone derivatives isolated from Heterophyllaea pustulata Hook, f. (Rubiaceae). …. The conditions noted are these: pH 7.4.
Data set [37] is described as follows: method code SF, from DOI: 10.1016/0378-5173(85)90102-4. The conditions noted are these: pH 8.0.
The conditions of data set [38]: pH 13.0.
Assay in data set [39]: not given
The source holds these as a separate data set.

Data set [40] is described as follows: method code G, from Wang, L.; Li, H.; Wang, X.; Zhang, Z. (1993). Determination of aqueous solubilities and partition coefficients of substitutive ethylketone congeners by generator column. Huanjing Huaxue, 12(2)151-154.
The conditions of data set [41]: pH 7.5.
For data set [42] the following is noted: pH 7.4.
Assay in data set [43]: not given
This is another data set of the same source.

The term logP denotes the decadic logarithm of the partition coefficient of the neutral form, usually between octanol and water. A high value points to a more lipophilic compound.

As for `CN(C)c1ccccc1Sc1ccc(C#N)cc1N`, the logD in data set [1] worked out at 2.71.
`CN(C)C(=O)COC(=O)c1cc(S(N)(=O)=O)c(Cl)cc1NCc1ccco1` came in with a logD in data set [2] of 1.18.
Compound `CCc1onc(C)c1NC1=CC(=O)C(=O)c2ccccc21` came in with a logP in [3] of 2.14.
As for `C[C@]12N[C@H](Cc3ccccc31)c1ccccc12`, the lipophilicity (logP) was found to be 1.79.
Take `CCCn1c(=O)c2[nH]c(C3CCCC3)nc2n(C/C=C/I)c1=O`: the logD in data set [4] came to 2.96.
Compound `COc1ccc(Nc2ccnc3cc(Cl)ccc23)cc1` had a logP in data set [5] of 4.94.
For the compound `COc1ccc2cc(CCC(C)=O)ccc2c1`, the logP in data set [6] turned out to be 3.45.
In [7], `CC(C(c1ccccc1)c1ccccc1)[N+](=O)[O-]` (centres undefined) had a lipophilicity (logP) of 3.91.
In data set [8], `COc1ccc(COc2ccccc2C(N)=O)cc1` returned a logP of 1.63.
For `O=C1Nc2c(Cl)ccc(OCCF)c2C2(CCCCC2)N1`, the logD in data set [9] is 2.9.
For the compound `CCCC(=O)NCCC(=O)NCc1c(O)c(=O)cc(C)n1C`, in data set [10], the logD is -0.7.
`c1cc(-c2cnc3c(-c4ccncc4)cnn3c2)ccn1` registered a lipophilicity (logP) in data set [11] of 2.5.
For `O=C1CCC[C@@H]2[C@H]3CCC[N@+]4([O-])CCC[C@@H](CN12)[C@@H]34`, the logD in [12] is -0.86.
Turning to `C[C@H](CS)C(=O)N1C[C@@H](Sc2ccccc2)C[C@H]1C(=O)O` (relative stereo), in data set [13], the logD worked out at 2.16.
`Oc1ccc2ccccc2c1/N=N/c1ccccc1`: in data set [14], the logP came out at 5.86.
In turn, `COc1ccc(C(c2ccc(OC)cc2)C(Cl)(Cl)Cl)cc1` returned a logD in data set [15] of 3.82.
Regarding `CC(C)(c1ccc(O)cc1)c1ccc(O)cc1`, the lipophilicity (logP) in data set [16] is 3.41.
As for `CCN1CCC[C@H]1CNC(=O)c1c(OC)ccc(Br)c1OC`, the log partition coefficient (logP) in data set [17] stood at 2.1.
In the case of `CCOC(=O)c1cncn1C(C)c1ccc(C2(C(F)(F)F)N=N2)cc1` (centres undefined), the logD in data set [18] is 4.4.
Take `O=C(O)CCC(=O)c1ccc(-c2ccccc2)cc1`: in data set [19], the logP worked out at 2.91.
With `CC(C)OC(=O)C(NC(=O)c1cccnc1)n1cc(F)c(=O)[nH]c1=O` (centres undefined), in data set [20], the logD worked out at 0.62.
The compound `Cc1cn(C2CC(O)C(CO)S2)c(=O)n(Cc2cn(CCF)nn2)c1=O` (centres undefined) showed a logP in [21] of -0.86.
In turn, `O=C1NC(=O)C2(CCCCCCCCCCC2)C(=O)N1` came in with a logP in [22] of 3.51.
Take `N#Cc1ccc(OCC2CCN(C/C=C/I)CC2)cc1`: the lipophilicity (logP) in data set [23] is 3.36.
On to `O=[N+]([O-])c1cc(Cl)c(/N=N/c2ccc(N(CCO)CCO)cc2Cl)c(Cl)c1`, for which, in data set [24], the logP was 3.9.
In turn, `COc1ccc(-c2coc3cc(O)ccc3c2=O)cc1` displayed a log partition coefficient (logP) in [25] of 3.32.
In the case of `Cn1c(CCCC(=O)O)nc2cc(N(CCCl)CCCl)ccc21`, in data set [26], the logD came to 0.44.
In the case of `Cc1ccc(C(=O)Cn2c3c(sc2=N)CCCC3)cc1`, in data set [27], the logD is 1.49.
In turn, `c1cnc(N2CCN(Cc3ccc4c(c3)OCO4)CC2)nc1` came in with a log partition coefficient (logP) in data set [28] of 2.84.
Turning to `CNc1ccc(/C=C/c2ccc(O)cc2)cc1`, in [29], the logD worked out at 2.36.
As to `COCCOc1ccccc1S(=O)(=O)NC(=O)Nc1nc(OC)nc(OC)n1`, in [30], the logP came out at 1.71.
On to `CCCCCCCCCCOC(=O)c1cc(=O)[nH]c(=O)[nH]1`, for which, in data set [31], the logD is 2.85.
Turning to `CN(C)Cc1cc(I)ccc1Sc1ccc(Cl)cc1N`, the logP in [32] turned out to be 3.31.
Consider `CCc1cc2c(s1)N(C)C(=O)CN=C2c1ccccc1Cl`, for which, in data set [33], the logD was found to be 3.35.
The compound `CC(C)NCC(O)c1ccc2ccccc2c1` (centres undefined) returned a logP in [34] of 3.
As for `CCc1c(OC)cc(Cc2cnc(N)nc2N)cc1OC`, the logD in [35] was 2.72.
Take `COc1c(CO)c(O)cc2c1C(=O)c1ccccc1C2=O`: in data set [36], the logD came to 1.29.
In data set [37], `NC(Cc1ccccc1)C(=O)OCn1ncc2c(=O)[nH]cnc21` (racemic) had a logD of 0.4.
As to `C=CCOc1ccccc1OCC(O)CNC(C)C` (centres undefined), the logD in data set [38] stood at 2.25.
As to `COc1cccc(N(C)C(=N)Nc2cc(SC)ccc2Cl)c1`, the logP in data set [39] came to 2.34.
In data set [40], `COc1ccc(C(=O)CSc2ccc(C)cc2)cc1` showed a logP of 2.47.
In the case of `CCN1CCC[C@H]1CNC(=O)c1c(O)c(I)cc(OC)c1OC`, the logD in data set [41] came to 2.5.
`O=C(Nc1ccnc(NC(=O)C2CC2)c1)c1c(Cl)cccc1Cl` registered a logD in data set [42] of 3.4.
For the compound `Nc1cc2c3c(cccc3c1)-c1ccccc1-2`, the log partition coefficient (logP) in data set [43] is 3.14.
